Assay results from ChEMBL document CHEMBL1157938, “Cytotoxicity and inhibition of DNA topoisomerase I of polyhydroxylated triterpenoids and triterpenoid glycosides” (Bioorg Med Chem Lett, 2010).
The source made the active and inactive calls. No cut-off for these calls is given here.

Assays:
[1] = Cytotoxicity against human MRC5 cells after 48 hrs by WST8 assay; type: cell-based
HL-60 [2] = assay: Cytotoxicity against human HL60 cells after 48 hrs by WST8 assay; type: functional; conditions: HL-60, 48 h
PANC-1 [3] = assay: Cytotoxicity against human PANC1 cells after 48 hrs by WST8 assay; type: functional; conditions: PANC-1, 48 h
PC-3 [4] = assay: Cytotoxicity against human PC3 cells after 48 hrs by WST8 assay; type: functional; conditions: PC-3, 48 h
DNA topoisomerase 1 = molecular target: T1, DNA topoisomerase 1 (Homo sapiens, UniProt P11387); assay: Inhibition of human DNA topoisomerase 1-mediated relaxation of supercoiled DNA by gel electrophoresis
T1 sequence (P11387 whole entry): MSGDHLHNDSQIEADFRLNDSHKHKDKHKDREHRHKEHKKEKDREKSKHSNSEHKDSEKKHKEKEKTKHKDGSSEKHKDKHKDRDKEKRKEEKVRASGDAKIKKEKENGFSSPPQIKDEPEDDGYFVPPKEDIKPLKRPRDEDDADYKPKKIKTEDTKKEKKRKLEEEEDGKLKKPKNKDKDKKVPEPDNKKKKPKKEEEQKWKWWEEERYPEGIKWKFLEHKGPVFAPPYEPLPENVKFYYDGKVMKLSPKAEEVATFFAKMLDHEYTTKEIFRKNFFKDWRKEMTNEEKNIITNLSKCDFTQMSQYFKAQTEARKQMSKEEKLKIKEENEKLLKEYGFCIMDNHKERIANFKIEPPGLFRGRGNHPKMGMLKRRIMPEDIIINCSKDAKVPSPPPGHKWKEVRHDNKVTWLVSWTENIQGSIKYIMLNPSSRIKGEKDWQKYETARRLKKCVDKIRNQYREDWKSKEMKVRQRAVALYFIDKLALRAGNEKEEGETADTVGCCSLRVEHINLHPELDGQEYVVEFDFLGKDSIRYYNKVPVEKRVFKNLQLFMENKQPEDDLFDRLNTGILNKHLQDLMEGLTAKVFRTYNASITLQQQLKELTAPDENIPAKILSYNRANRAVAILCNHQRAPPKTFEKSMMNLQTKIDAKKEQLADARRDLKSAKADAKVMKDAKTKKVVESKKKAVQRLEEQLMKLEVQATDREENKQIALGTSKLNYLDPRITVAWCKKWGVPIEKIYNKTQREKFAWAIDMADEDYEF

[5] = molecular target: DNA topoisomerase 2-alpha (Homo sapiens, UniProt P11388); assay: Inhibition of human DNA topoisomerase 2-mediated relaxation of supercoiled DNA by gel electrophoresis
A549 [6] = assay: Cytotoxicity against human A549 cells after 48 hrs by WST8 assay; type: functional; conditions: A549, 48 h
HL-60 [7] = assay: Cytotoxicity against human HL60 cells at 25 uM after 48 hrs by WST8 assay; type: functional, cell-based
PANC-1 [8] = assay: Cytotoxicity against human PANC1 cells at 25 uM after 48 hrs by WST8 assay; type: functional, cell-based
A549 [9] = assay: Cytotoxicity against human A549 cells at 25 uM after 48 hrs by WST8 assay; type: functional, cell-based
PC-3 [10] = assay: Cytotoxicity against human PC3 cells at 25 uM after 48 hrs by WST8 assay; type: functional, cell-based
MRC5 = assay: Cytotoxicity against human MRC5 cells at 25 uM after 48 hrs by WST8 assay; type: cell-based; conditions: mrc5, 48 h

DNA topoisomerase 2-alpha, sequence (P11388 whole entry): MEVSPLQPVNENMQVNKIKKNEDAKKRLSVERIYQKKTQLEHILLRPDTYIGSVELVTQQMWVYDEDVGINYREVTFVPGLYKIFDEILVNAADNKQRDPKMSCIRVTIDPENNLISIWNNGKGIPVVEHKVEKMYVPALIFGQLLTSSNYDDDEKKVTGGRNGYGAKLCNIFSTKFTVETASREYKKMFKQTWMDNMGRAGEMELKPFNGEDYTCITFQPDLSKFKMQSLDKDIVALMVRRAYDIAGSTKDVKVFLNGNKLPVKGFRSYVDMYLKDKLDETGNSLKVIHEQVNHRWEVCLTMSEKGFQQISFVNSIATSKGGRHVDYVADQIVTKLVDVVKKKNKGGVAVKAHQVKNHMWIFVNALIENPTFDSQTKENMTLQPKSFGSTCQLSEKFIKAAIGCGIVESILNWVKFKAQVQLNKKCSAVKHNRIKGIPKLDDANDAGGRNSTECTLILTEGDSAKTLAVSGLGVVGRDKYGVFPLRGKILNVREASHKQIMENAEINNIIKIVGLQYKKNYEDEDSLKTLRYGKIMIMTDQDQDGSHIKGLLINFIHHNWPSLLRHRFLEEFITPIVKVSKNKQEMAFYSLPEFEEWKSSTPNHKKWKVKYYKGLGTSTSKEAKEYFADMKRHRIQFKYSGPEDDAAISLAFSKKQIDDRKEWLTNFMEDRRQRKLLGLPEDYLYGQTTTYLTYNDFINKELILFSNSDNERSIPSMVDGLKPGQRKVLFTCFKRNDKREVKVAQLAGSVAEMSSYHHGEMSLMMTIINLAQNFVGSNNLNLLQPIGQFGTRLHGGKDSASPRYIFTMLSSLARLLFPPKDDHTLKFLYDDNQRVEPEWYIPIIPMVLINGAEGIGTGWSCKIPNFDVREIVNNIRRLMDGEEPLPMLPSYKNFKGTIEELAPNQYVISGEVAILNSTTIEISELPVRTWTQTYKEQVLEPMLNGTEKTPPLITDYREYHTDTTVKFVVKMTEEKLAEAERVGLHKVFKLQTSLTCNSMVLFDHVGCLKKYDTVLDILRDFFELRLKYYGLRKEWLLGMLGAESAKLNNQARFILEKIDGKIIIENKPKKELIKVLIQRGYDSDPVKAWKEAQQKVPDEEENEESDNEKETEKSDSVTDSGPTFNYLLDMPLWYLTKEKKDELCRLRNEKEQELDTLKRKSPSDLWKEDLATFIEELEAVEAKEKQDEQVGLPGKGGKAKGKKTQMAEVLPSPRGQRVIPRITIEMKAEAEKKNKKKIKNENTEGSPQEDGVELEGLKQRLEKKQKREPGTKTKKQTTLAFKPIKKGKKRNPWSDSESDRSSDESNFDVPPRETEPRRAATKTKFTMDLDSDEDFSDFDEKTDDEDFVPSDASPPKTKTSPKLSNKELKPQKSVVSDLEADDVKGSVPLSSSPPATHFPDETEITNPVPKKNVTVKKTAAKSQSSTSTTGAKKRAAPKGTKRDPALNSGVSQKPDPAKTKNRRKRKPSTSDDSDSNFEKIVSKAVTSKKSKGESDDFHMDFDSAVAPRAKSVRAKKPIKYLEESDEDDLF

| Compound | GI50 at 48 h [1] | GI50 (HL-60 [2]) | GI50 (PANC-1 [3]) | GI50 (PC-3 [4]) | IC50 (DNA topoisomerase 1) | IC50 [5] | GI50 (A549 [6]) | growth inhibition (GI) (HL-60 [7]) | growth inhibition (GI) (PANC-1 [8]) | growth inhibition (GI) (A549 [9]) | growth inhibition (GI) (PC-3 [10]) | growth inhibition (GI) (MRC5) |
| --- | --- | --- | --- | --- | --- | --- | --- | --- | --- | --- | --- | --- |
| C/C=C(/C)C(=O)O[C@H]1[C@H](OC(=O)/C(C)=C\C)[C@]2(CO)[C@H](O)C[C@]3(C)C(=CC[C@@H]4[C@@]5(C)CC[C@H](O)[C@](C)(CO)[C@@H]5CC[C@]43C)[C@@H]2CC1(C)C | 1.65 µM | 2.72 µM | 4.63 µM | 2.39 µM | > 250 µM | > 250 µM | 1.94 µM | – | – | – | – | – |
| C/C=C(/C)C(=O)O[C@H]1[C@H](OC(=O)C(C)CC)[C@]2(CO)[C@H](O)[C@H](O)[C@]3(C)C(=CC[C@@H]4[C@@]5(C)CC[C@H](O)C(C)(C)[C@@H]5CC[C@]43C)[C@@H]2CC1(C)C (stereo partly drawn) | 6.53 µM | 4.21 µM | 12.8 µM | 12.5 µM | > 250 µM | > 250 µM | 5.37 µM | – | – | – | – | – |
| C/C=C(/C)C(=O)O[C@H]1[C@H](OC(=O)C(C)CC)[C@]2(CO)[C@H](O)C[C@]3(C)C(=CC[C@@H]4[C@@]5(C)CC[C@H](O)C(C)(C)[C@@H]5CC[C@]43C)[C@@H]2CC1(C)C (stereo partly drawn) | 3.67 µM | 4.6 µM | 9.6 µM | 4.11 µM | > 250 µM | > 250 µM | 1.7 µM | – | – | – | – | – |
| C/C=C(/C)C(=O)O[C@H]1[C@H](OC(=O)C(C)C)[C@]2(CO)[C@H](O)C[C@]3(C)C(=CC[C@@H]4[C@@]5(C)CC[C@H](O)[C@](C)(CO)[C@@H]5CC[C@]43C)[C@@H]2CC1(C)C | 2.71 µM | 2.53 µM | 8 µM | 2.34 µM | > 250 µM | > 250 µM | 3.81 µM | – | – | – | – | – |
| C/C=C(/C)C(=O)O[C@H]1[C@H](O)[C@]2(CO)[C@H](O)C[C@]3(C)C(=CC[C@@H]4[C@@]5(C)CC[C@H](O)[C@](C)(CO)[C@@H]5CC[C@]43C)[C@@H]2CC1(C)C | 18.1 µM | – | 11.9 µM | 2.23 µM | > 250 µM | > 250 µM | 2.45 µM | inactive | – | – | – | – |
| C[C@H]1[C@H](C)CC[C@]2(C)CC[C@]3(C)C(=CC[C@@H]4[C@@]5(C)CC[C@H](O)C(C)(C)[C@@H]5CC[C@]43C)[C@H]12 | – | – | 12.8 µM | 7.66 µM | > 250 µM | > 250 µM | 10.5 µM | inactive | – | – | – | – |
| C/C=C(\C)C(=O)O[C@H]1[C@H](OC(C)=O)[C@]2(CO)[C@H](O)[C@H](O)[C@]3(C)C(=CC[C@@H]4[C@@]5(C)CC[C@H](O[C@@H]6O[C@H](C(=O)O)[C@@H](O)[C@H](O[C@@H]7O[C@@H](CO)[C@H](O)[C@H]7O)[C@H]6O[C@@H]6O[C@H](CO)[C@H](O)[C@H](O)[C@H]6O)C(C)(C)[C@@H]5CC[C@]43C)[C@@H]2CC1(C)C [AESCULIOSIDE IIF] | – | – | – | – | > 250 µM | > 250 µM | – | inactive | inactive | inactive | inactive | Not Active |
| C/C=C(/C)C(=O)O[C@H]1[C@H](OC(C)=O)[C@]2(CO)[C@H](O)[C@H](O)[C@]3(C)C(=CC[C@@H]4[C@@]5(C)CC[C@H](O[C@@H]6O[C@H](C(=O)O)[C@@H](O)[C@H](O[C@@H]7O[C@@H](CO)[C@H](O)[C@H]7O)[C@H]6O[C@@H]6O[C@H](CO)[C@H](O)[C@H](O)[C@H]6O)C(C)(C)[C@@H]5CC[C@]43C)[C@@H]2CC1(C)C [AESCULIOSIDE IIG] | – | – | – | – | > 250 µM | > 250 µM | – | inactive | inactive | inactive | inactive | Not Active |
| C/C=C(/C)C(=O)O[C@H]1[C@H](OC(C)=O)[C@]2(CO)[C@H](O)C[C@]3(C)C(=CC[C@@H]4[C@@]5(C)CC[C@H](O[C@@H]6O[C@H](C(=O)O)[C@@H](O)[C@H](O[C@@H]7O[C@@H](CO)[C@H](O)[C@H]7O)[C@H]6O[C@@H]6O[C@H](CO)[C@@H](O)[C@H](O)[C@H]6O)[C@](C)(CO)[C@@H]5CC[C@]43C)[C@@H]2CC1(C)C [AESCULIOSIDE III] | 12.8 µM | 8.37 µM | 14.8 µM | 9.54 µM | > 250 µM | > 250 µM | 20.1 µM | – | – | – | – | – |
| C/C=C(\C)C(=O)O[C@H]1[C@H](OC(C)=O)[C@]2(CO)[C@H](O)C[C@]3(C)C(=CC[C@@H]4[C@@]5(C)CC[C@H](O[C@@H]6O[C@H](C(=O)O)[C@@H](O)[C@H](O[C@@H]7O[C@@H](CO)[C@H](O)[C@H]7O)[C@H]6O[C@@H]6O[C@H](CO)[C@H](O)[C@H](O)[C@H]6O)C(C)(C)[C@@H]5CC[C@]43C)[C@@H]2CC1(C)C [AESCULIOSIDE IIJ] | 17.3 µM | – | 21.9 µM | 13.8 µM | > 250 µM | > 250 µM | 21.8 µM | inactive | – | – | – | – |
| C[C@@H]1[C@@H](O)[C@H](O)[C@@H](O[C@H]2CC(C)(C)C[C@H]3C4=CC[C@@H]5[C@@]6(C)CC[C@H](O[C@@H]7O[C@H](CO)[C@@H](O)[C@H](O)[C@H]7O[C@@H]7O[C@H](CO)[C@@H](O)[C@H](O)[C@H]7O[C@@H]7O[C@H](CO)[C@@H](O)[C@H](O)[C@H]7O)C(C)(C)[C@@H]6CC[C@@]5(C)[C@]4(C)C[C@@H](O)[C@@]23CO)O[C@H]1CO [ERYNGIOSIDE A] | – | – | – | – | – | – | – | inactive | inactive | inactive | inactive | Not Active |
| C[C@@H]1[C@@H](O)[C@H](O)[C@@H](O[C@H]2CC(C)(C)C[C@H]3C4=CC[C@@H]5[C@@]6(C)CC[C@H](O[C@@H]7O[C@H](CO)[C@@H](O)[C@H](O)[C@H]7O[C@@H]7O[C@H](CO)[C@@H](O)[C@H](O)[C@H]7O[C@@H]7O[C@H](CO)[C@H](O)[C@H](O)[C@H]7O)C(C)(C)[C@@H]6CC[C@@]5(C)[C@]4(C)C[C@@H](O)[C@@]23CO)O[C@H]1CO [ERYNGIOSIDE B] | – | – | – | – | – | – | – | inactive | inactive | inactive | inactive | Not Active |
| C[C@@H]1[C@@H](O)[C@H](O)[C@@H](O[C@H]2CC(C)(C)C[C@H]3C4=CC[C@@H]5[C@@]6(C)CC[C@H](O[C@@H]7O[C@H](CO)[C@@H](O)[C@H](O)[C@H]7O[C@@H]7O[C@H](CO)[C@@H](O)[C@H](O)[C@H]7O[C@@H]7O[C@H](CO)[C@@H](O)[C@H](O)[C@H]7O)C(C)(C)[C@@H]6CC[C@@]5(C)[C@]4(C)CC(=O)[C@@]23CO)O[C@H]1CO [ERYNGIOSIDE C] | – | – | – | – | – | – | – | inactive | inactive | inactive | inactive | Not Active |
| C/C=C(/C)C(=O)O[C@H]1[C@H](O)C(C)(C)C[C@H]2C3=CC[C@@H]4[C@@]5(C)CC[C@H](O[C@@H]6O[C@H](C(=O)O)[C@@H](O)[C@H](O[C@@H]7OC[C@@H](O)[C@H](O)[C@H]7O)[C@H]6O[C@@H]6O[C@H](CO)[C@@H](O)[C@H](O)[C@H]6O)C(C)(C)[C@@H]5CC[C@@]4(C)[C@]3(C)[C@@H](O)[C@@H](O)[C@]21CO [ERYNGIOSIDE E] | – | – | – | – | > 250 µM | > 250 µM | – | inactive | inactive | inactive | inactive | Not Active |
| C/C=C(/C)C(=O)O[C@H]1[C@H](O)C(C)(C)C[C@H]2C3=CC[C@@H]4[C@@]5(C)CC[C@H](O[C@@H]6O[C@H](C(=O)O)[C@@H](O)[C@H](O[C@@H]7OC[C@@H](O)[C@H](O)[C@H]7O)[C@H]6O[C@@H]6O[C@H](CO)[C@@H](O)[C@H](O)[C@H]6O)C(C)(C)[C@@H]5CC[C@@]4(C)[C@]3(C)C[C@@H](O)[C@]21CO [ERYNGIOSIDE F] | – | – | – | – | > 250 µM | > 250 µM | – | inactive | inactive | inactive | inactive | Not Active |
